From patent US4943576A, “Substituted quinoxalyl-imidazolidine-2,4-diones, processes for their preparation, their use as medicaments and pharmaceutical preparations” (Hoechst Aktiengesellschaft, priority 1987, dated 1990)

Tests used:
aldose reductase = aldose reductase (Rattus norvegicus, UniProt P07943); assay: In vitro inhibition of enzyme activity (rat hepatic enzyme preparation); assay type: biochemical; conditions: read-out: IC50 (molar concentration required for 50% inhibition of aldose reductase)
Description: 1. in vitro inhibition of the enzyme activity of isolated aldose reductase;
In vitro inhibition of enzyme activity (rat hepatic enzyme preparation)
The inhibiting values on aldose reductase are summarized in Table 1 for some compounds according to the invention (IC50 [M] denotes the molar concentration of the compound which is required for 50% inhibition).

[1] = system: sorbitol accumulation in erythrocytes; assay: Reduction of increased sorbitol levels in streptozotocin-diabetic rats, erythrocytes; assay type: in vivo; conditions: 25 mg/kg oral in Tylose suspension, vs untreated controls
Description: (§1) 3. reduction of increased sorbitol levels in streptozotocin-diabetic rats in vivo;
(§2) Reduction of increased sorbitol levels
(§3) The oral administration in ®Tylose suspension (=suspension of a water-soluble cellulose ether), of the substances mentioned as examples in the following Table 3 to streptozotocin-diabetic rats leads to a great reduction in the sorbitol accumulation in erythrocytes and in the nerve tissue in comparison with untreated control animals.

[2] = system: sorbitol accumulation in nerve tissue; assay: Reduction of increased sorbitol levels in streptozotocin-diabetic rats, nerve tissue; assay type: in vivo; conditions: 25 mg/kg oral in Tylose suspension, vs untreated controls
Description: as §1, §2, §3

[3] = system: sorbitol accumulation in nerve; assay: In vitro inhibition of sorbitol accumulation, nerve (tissue of normal rats); assay type: cell-based; conditions: Rattus norvegicus, 3 μmol/l
Experimental: (§4) 2. in vitro inhibition of the sorbitol accumulation in erythrocytes in the lens or in the sciatic nerve of normal or streptozotocin-diabetic rats;
(§5) In vitro inhibition of sorbitol accumulation (tissue of normal rats)
(§6) The inhibiting values summarized in Table 2 were determined for some of the compounds according to the invention at a concentration of 3 μmol/l.

[4] = system: sorbitol accumulation in erythrocytes; assay: In vitro inhibition of sorbitol accumulation, erythrocytes (tissue of normal rats); assay type: cell-based; conditions: Rattus norvegicus, Erythrocyte, 3 μmol/l
Experimental: as §4, §5, §6

Molecule | IC50 (aldose reductase) [µM] | Sorbitol content after 5 hours in erythrocytes [1] [%] | Sorbitol content after 5 hours in nerve tissue [2] [%] | inhibition at 3 µM [3] [%] | inhibition at 3 µM [4] [%]
5-(6'/7'-Fluoro-3'-methyl-quinoxalin-2'-yl)-5-methyl-imidazolidine-2,4-dion [Example 26] | 280 | – | – | – | –
5-(6'/7'-Fluoro-quinoxalin-2'-yl)-5-methyl-imidazolidine-2,4-dione [Example 25] | – | -66 | -70 | – | –
Cc1nc2ccccc2nc1C1(C)NC(=O)NC1=O (single isomer, unassigned; (+)) [Example 33, (+)-5-Methyl-5-(3'-methyl-quinoxalin-2'-yl)-imidazolidine-2,4-dione] | – | – | – | -30 | -26
CCc1nc2ccc(C3(C)NC(=O)NC3=O)cc2nc1CC (centres unmarked) [Example 2, 5-(2',3'-Diethyl-quinoxalin-6'-yl)-5-methyl-imidazolidine2,4-dione] | – | -57 | -22 | -30 | –
CC1(c2cnc3ccccc3n2)NC(=O)NC1=O (centres unmarked) [Example 18, 5-(Quinoxalin-2'-yl)-5-methyl-imidazolidine-2,4-dione] | – | – | – | -39 | -10
Cc1cc2nc(C)c(C3(C)NC(=O)NC3=O)nc2cc1C (centres unmarked) [Example 20, 5-Methyl-5-(3',6',7'-trimethyl-quinoxalin-2'-yl)-imidazolidine-2,4-dione hydrate] | – | – | – | – | -29
COc1cc2ncc(C3(C)NC(=O)NC3=O)nc2cc1OC (centres unmarked) [Example 21, 5-(6',7'-Dimethoxy-quinoxalin-2'-yl)-5-methyl-imidazolidine-2,4-dione] | – | – | – | -38 | -26
Cc1nc2ccccc2nc1C1(C)NC(=O)NC1=O (centres unmarked) [Example 23, 5-Methyl-5-(3'-methyl-quinoxalin-2'-yl)-imidazolidine-2,4-dione] | – | -72 | -83 | -65 | -21
